Experimental data published in US9609868B2, “Alkoximino-substituted anthranilic acid diamides as pesticides” (BAYER CROPSCIENCE AKTIENGESELLSCHAFT, priority 2013, dated 2017).

How the values were obtained:
[1] = log P by HPLC on reversed-phase column (C18), EEC directive 79/831 Annex V.A8; assay type: physicochemical; details: HPLC reversed-phase C18, 43° C., data refer to the E isomer
Protocol: The log P values reported in the tables and Preparation Examples above were determined in accordance with EEC directive 79/831 Annex V.A8 by HPLC (High Performance Liquid Chromatography) using a reversed-phase column (C18). Temperature 43° C. The calibration is effected with unbranched alkan-2-ones (having 3 to 16 carbon atoms), for which the log P values are known.

Myzus persicae = Myzus persicae - spray test (MYZUPE); assay type: in vivo; details: application rate 100 g/ha, Chinese cabbage leaf disks
Protocol: Myzus persicae—Spray Test (MYZUPE)
Solvent: 78 parts by weight of acetone • • 1.5 parts by weight of dimethylformamide
(§1) Emulsifier: 0.5 parts by weight of alkylaryl polyglycol ether
(§2) To produce a suitable active compound preparation, 1 part by weight of active compound is mixed with the stated amounts of solvent and emulsifier, and the concentrate is diluted with emulsifier-containing water to the desired concentration.
Disks of Chinese cabbage leaves (Brassica pekinensis) infested by all stages of the green peach aphid (Myzus persicae) are sprayed with an active compound preparation of the desired concentration.
After the desired period of time, the efficacy in % is determined. 100% means that all the aphids have been killed; 0% means that none of the aphids have been killed.

Phaedon cochleariae = Phaedon cochleariae - spray test (PHAECO); assay type: in vivo; details: application rate 100 g/ha, Chinese cabbage leaf disks
Protocol: Phaedon cochleariae—Spray Test (PHAECO)
(§3) Solvent: 78.0 parts by weight of acetone • • 1.5 parts by weight of dimethylformamide
as §1, §2
After the desired period of time, the efficacy in % is determined. 100% means that all the beetle larvae have been killed; 0% means that no beetle larvae have been killed.

Spodoptera frugiperda = Spodoptera frugiperda - spray test (SPODFR); assay type: in vivo; details: application rate 100 g/ha, maize leaf disks
Protocol: Spodoptera frugiperda—Spray Test (SPODFR)
as §3, §1, §2
Leaf disks of maize (Zea mays) are sprayed with an active compound preparation of the desired concentration and, after drying, populated with caterpillars of the armyworm (Spodoptera frugiperda).
After the desired period of time, the efficacy in % is determined. 100% means that all the caterpillars have been killed; 0% means that no caterpillars have been killed.

SMILES | log p ([1]; Table A) | efficacy (aphids killed) (Myzus persicae) [%] | efficacy (beetle larvae killed) (Phaedon cochleariae) [%] | efficacy (caterpillars killed) (Spodoptera frugiperda) [%] | log p ([1]; Table C) | log p ([1]; Table B)
CON=Cc1cc(C)c(NC(=O)c2cc(C(F)F)nn2-c2ncccc2Cl)c(C(=O)NN(C)C(=O)OC)c1 (mixture of isomers) [A-47] | 2.21 | 90 | 100 | 100 |  | 
CCNC(=O)c1cc(C=NOC)cc(C)c1NC(=O)c1cc(CF)nn1-c1ncccc1Cl [C-53] |  | 90 | 100 | 100 | 2.39 | 
CON=Cc1cc(C)c(NC(=O)c2cc(OC)nn2-c2ncccc2Cl)c(C(=O)NC(C)(C)C)c1 (mixture of isomers) [C-37] |  | 90 | 100 | 100 | 3.71 | 
CON=Cc1cc(C)c(NC(=O)c2cc(OCC(F)F)nn2-c2ncccc2Cl)c(C(=O)NC2CC2)c1 [C-17] |  | 90 | 100 | 100 | 2.91 | 
CON=Cc1cc(C)c(NC(=O)c2cc(OC)nn2-c2ncccc2Cl)c(C(=O)NC2COC2)c1 (mixture of isomers) [B-10] |  | 100 | 100 | 100 |  | 2.04
CON=Cc1cc(C)c(NC(=O)c2cc(OC)nn2-c2ncccc2Cl)c(C(=O)NC(C)(C)C)c1 [C-26] |  | 100 | 100 | 100 | 3.06 | 
CON=Cc1cc(C)c(NC(=O)c2cc(C(F)(F)F)nn2-c2ncccc2Cl)c(C(=O)N(C)NC(=O)OC)c1 (mixture of isomers) [A-48] | 3.00 | 100 | 100 | 100 |  | 
CON=Cc1cc(C)c(NC(=O)c2cc(OCC(F)F)nn2-c2ncccc2Cl)c(C(=O)NC(C)(C)C)c1 [C-21] |  | 100 | 83 | 100 | 3.43 | 
CON=Cc1cc(C)c(NC(=O)c2cc(OCC(F)(F)F)nn2-c2ncccc2Cl)c(C(=O)NNC(=O)OC)c1 (mixture of isomers) [A-33] | 2.70 | 100 | 100 | 100 |  | 
C#CCNC(=O)c1cc(C=NOC)cc(C)c1NC(=O)c1cc(CF)nn1-c1ncccc1Cl [C-57] |  | 90 | 100 | 100 | 2.38 | 
CNC(=O)c1cc(C=NOC)cc(C)c1NC(=O)c1cc(OC)nn1-c1ncccc1Cl [C-22] |  | 100 | 100 | 100 | 2.15 | 
CON=Cc1cc(C)c(NC(=O)c2cc(C(F)(F)F)nn2-c2ncccc2Cl)c(C(=O)NC2CSC2)c1 (mixture of isomers) [B-06] |  | 90 | 100 | 100 |  | 3.46
CON=Cc1cc(C)c(NC(=O)c2cc(Br)nn2-c2ncccc2Cl)c(C(=O)NC2COC2)c1 (mixture of isomers) [B-03] |  | 100 | 100 | 100 |  | 2.44
CCNC(=O)c1cc(C=NOC)cc(C)c1NC(=O)c1cc(C(F)F)nn1-c1ncccc1Cl [C-63] |  | 100 | 100 | 100 | 2.71 | 
COCCNC(=O)c1cc(C=NOC)cc(C)c1NC(=O)c1cc(C(F)F)nn1-c1ncccc1Cl [C-59] |  | 90 | 100 | 100 | 2.53 | 
CON=Cc1cc(C)c(NC(=O)c2cc(C(F)F)nn2-c2ncccc2Cl)c(C(=O)NC2COC2)c1 (mixture of isomers) [B-11] |  | 100 | 100 | 100 |  | 2.31
CON=Cc1cc(C)c(NC(=O)c2cc(OC(C)C)nn2-c2ncccc2Cl)c(C(=O)NC(C)C)c1 [C-07] |  | 90 | 100 | 100 | 3.29 | 
C#CCNC(=O)c1cc(C=NOC)cc(C)c1NC(=O)c1cc(C(F)F)nn1-c1ncccc1Cl [C-62] |  | 90 | 100 | 100 | 2.69 | 
CCOc1cc(C(=O)Nc2c(C)cc(C=NOC)cc2C(=O)NC(C)C2CC2)n(-c2ncccc2Cl)n1 (stereo not shown) [C-27] |  | 90 | 100 | 100 | 3.38 | 
CCOc1cc(C(=O)Nc2c(C)cc(C=NOC)cc2C(=O)NC(C)(C)C)n(-c2ncccc2Cl)n1 [C-11] |  | 100 | 100 | 100 | 3.42 | 
C#CCOC(=O)NNC(=O)c1cc(C=NOC)cc(C)c1NC(=O)c1cc(Br)nn1-c1ncccc1Cl [A-08] | 2.58 | 100 | 100 | 100 |  | 
CON=Cc1cc(C)c(NC(=O)c2cc(C(F)F)nn2-c2ncccc2Cl)c(C(=O)NC(C)(C)C)c1 [C-35] |  | 90 | 100 | 100 | 3.34 | 
CON=Cc1cc(C)c(NC(=O)c2cc(OC)nn2-c2ncccc2Cl)c(C(=O)NC(C)C)c1 (mixture of isomers) [C-32] |  | 90 | 100 | 100 | 3.22 | 
CON=Cc1cc(C)c(NC(=O)c2cc(OC(C)C)nn2-c2ncccc2Cl)c(C(=O)NC(C)C2CC2)c1 (stereo not shown) [C-08] |  | 90 | 100 | 100 | 3.65 | 
CON=Cc1cc(C)c(NC(=O)c2cc(C(F)(F)F)nn2-c2ncccc2Cl)c(C(=O)NC(C)CSC)c1 (stereo not shown) [C-05] |  | 100 | 100 | 100 | 3.72 | 
CON=Cc1cc(C)c(NC(=O)c2cc(C(F)(F)F)nn2-c2ncccc2Cl)c(C(=O)NC2C[S+]([O-])C2)c1 (mixture of isomers) [B-05] |  | 90 | 100 | 100 |  | 2.51
CNC(=O)c1cc(C=NOC)cc(C)c1NC(=O)c1cc(OC)nn1-c1ncccc1Cl (mixture of isomers) [C-33] |  | 90 | 100 | 100 | 2.70 | 
CON=Cc1cc(C)c(NC(=O)c2cc(C(F)F)nn2-c2ncccc2Cl)c(C(=O)NC(C)C2CC2)c1 (stereo not shown) [C-36] |  | 90 | 100 | 100 | 3.29 | 
